Target: T1, Adenosine receptor A1 (Rattus norvegicus, UniProt P25099)
T1 sequence (P25099 whole entry): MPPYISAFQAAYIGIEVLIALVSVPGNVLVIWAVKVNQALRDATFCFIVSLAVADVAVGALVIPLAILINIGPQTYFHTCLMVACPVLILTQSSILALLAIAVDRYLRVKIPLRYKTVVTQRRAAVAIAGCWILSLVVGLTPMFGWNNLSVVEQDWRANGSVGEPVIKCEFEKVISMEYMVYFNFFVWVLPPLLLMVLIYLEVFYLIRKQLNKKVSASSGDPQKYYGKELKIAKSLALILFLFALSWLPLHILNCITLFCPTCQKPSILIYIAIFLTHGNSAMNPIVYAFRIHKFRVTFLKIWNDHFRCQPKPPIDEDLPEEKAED

Ki: 2 nM
Compound: CCCn1c(=O)c2[nH]c(-c3ccc(OCC(=O)NCCN)cc3)nc2n(CCC)c1=O [N-(2-Amino-ethyl)-2-[4-(2,6-dioxo-1,3-dipropyl-2,3,6,9-tetrahydro-1H-purin-8-yl)-phenoxy]-acetamide]
